Source: patent publication US20070155783A1, “Substituted cyclohexyl and piperidinyl derivates as melanocortin-4 receptor modulators” (priority 2003, published 2007)
pEC50, pIC50: −log10 of the molar value.

How the values were obtained:
[1] = target: T1, hMC4-R (Homo sapiens, UniProt P32245); experiment: Functional cellular cAMP assay in HEK293 cells (fluorescence polarization); format: cell-based; details: for pEC50: HEK293 cells expressing human melanocortin receptor, cAMP production; for % activation functional assay: cAMP produced compared to stimulation with NDP-alpha-MSH
T1 construct: expressed in transfected cells; host or cells: HEK293 cells
Description: A functional cellular assay, based on competition between unlabeled cAMP and a fixed quantity of fluorescence labeled cAMP for a limited number of binding sites on a cAMP specific antibody, is used to discriminate melanocortin receptor agonists from antagonists by fluorescence polarization.
HEK293 cells expressing one of the human melanocortin receptors are transferred to 384 well microtiter plates, an appropriate amount of cAMP antibody is added, followed by the addition of different concentrations of the test compound to effect cAMP production. Cells are lysed and a fluorescence labeled cAMP conjugate is dispensed. The plate is read on a fluorescence polarization microplate reader and the amount of cAMP produced as a response to a test compound is compared to the production of cAMP resulting from stimulation with NDP-alpha-MSH.
To define antagonistic activity of a test compound, the compound is dispensed at different concentrations to cells stimulated by an appropriate amount of NDP-α-MSH. Inhibition of cAMP production is determined by comparing the inhibition of cAMP production of the test compound to the inhibition of cAMP production by a known inhibitor tested at the same concentrations.

[2] = target: T1, hMC4-R; experiment: Membrane binding assay, competition with fluorescence labeled NDP-alpha-MSH (fluorescence polarization); details: HEK293 cell membrane preparations expressing human melanocortin receptor
Description: A membrane binding assay is used to identify competitive inhibitors of fluorescence labeled NDP-alpha-MSH binding to HEK293 cell membrane preparations expressing human melanocortin receptors.
The test compound or unlabeled NDP-alpha-MSH is dispensed at varying concentrations to a 384 well microtiter plate. Fluorescence labeled NDP-alpha-MSH is dispensed at a single concentration, followed by addition of membrane preparations. The plate is incubated for 5 h at room temperature.
The degree of fluorescence polarization is determined with a fluorescence polarization microplate reader.

[3] = tested on: male Wistar rats; experiment: Spontaneous feeding paradigm, food intake in rats; format: in vivo, rat; details: 10 mg/kg
Description: Food intake in rats is measured after i.p. or p.o. administration of the test compound (see e.g. Chen, A. S. et al. Transgenic Res 2000 April; 9(2):145-54).
3-4 Hours following the onset of the light-phase, individually housed, male Wistar rats (200 -300 g) receive an ip injection or po application of test compound or vehicle in an administration volume of 2 ml/kg. Following the administration of substances (1-30 mg/kg), a pre-weighted amount of normal laboratory chow is placed into the food hopper. Food remaining is measured by hand at 1-2 hour intervals for up to 8 hours. Differences in food intake between test-compound and vehicle-treated rats are evaluated.
Selected Examples of the present invention were active in the rat model at 10 mg/kg after p.o. administration of the test compound using male Wistar rats (n=4-8).

T1 sequence (P32245 whole entry): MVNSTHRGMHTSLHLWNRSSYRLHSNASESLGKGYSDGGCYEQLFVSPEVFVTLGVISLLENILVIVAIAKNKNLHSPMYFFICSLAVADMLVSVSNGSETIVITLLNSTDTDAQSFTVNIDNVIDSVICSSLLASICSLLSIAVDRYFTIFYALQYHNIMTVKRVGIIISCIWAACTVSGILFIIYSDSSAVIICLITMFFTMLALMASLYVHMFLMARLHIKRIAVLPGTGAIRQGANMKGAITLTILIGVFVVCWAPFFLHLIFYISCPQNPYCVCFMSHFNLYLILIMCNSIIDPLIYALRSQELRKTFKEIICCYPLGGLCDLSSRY

pEC50 [1]	% activation functional assay [1]	pIC50 [2]	Structure (SMILES)	increase in cumulative food intake compared to vehicle ([3]; 2 hours following administration, p=0.048, n=4)	increase in cumulative food intake compared to vehicle ([3]; 4 hours following administration, p=0.092, n=4)	increase in cumulative food intake compared to vehicle ([3]; 7 hours following administration, p=0.047, n=4)
5.48	100%	6.22	O=C(N[C@H](C=C1CCC(c2ccccc2CN2CCCC2=O)CC1)Cc1ccc(Cl)cc1)[C@H]1Cc2ccccc2CN1 (stereo partly shown) [Example 1]	–	–	–
6.52	97%	6.52	O=C(N[C@@H](C=C1CCC(c2ccccc2CN2CCCC2=O)CC1)Cc1ccc(Cl)cc1)[C@H]1Cc2ccccc2CN1 (stereo partly shown) [Example 2]	–	–	–
–	no activation	5.51	O=C(N[C@H](C=C1CCN(c2ccccc2CN2CCCC2=O)CC1)Cc1ccc(Cl)cc1)c1cc(=O)c2ccccc2o1 [Example 17]	–	–	–
–	no activation	6.00	O=C(N[C@@H](C=C1CCC(c2ccccc2CN2CCCC2=O)CC1)Cc1ccc(Cl)cc1)c1cc(=O)c2ccccc2o1 (stereo partly shown) [Example 18]	–	–	–
–	–	–	COc1ccc2oc(C(=O)N[C@@H](C=C3CCC(c4ccccc4CN4CCCC4=O)CC3)Cc3ccc(Cl)cc3)cc(=O)c2c1 (stereo partly shown) [Example 34]	3100%	460%	151%
